The subject of the experiment is L1210 leukemia ip in BDF1 mice, survival T/C. Kind of experiment: NCI In Vivo Anticancer Drug Screen. Data for tumor model L1210 Leukemia (intraperitoneal) in B6D2F1 (BDF1) mice. The following applies: endpoint: mean survival time, higher = longer survival. The gist of the method:
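Survival endpoint. Drug-treated group vs vehicle group, expressed as T divided by C. Tumor passaged by transplantation.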

The mark [1] stands for this setting: dose: 200.0 mg/kg/injection, schedule: Q01DX001 (ip), vehicle: saline.
Setting [2] is: dose: 400.0 mg/kg/injection, schedule: Q01DX001 (ip), vehicle: saline.
Setting [3] is: dose: 100.0 mg/kg/injection, schedule: Q01DX001 (ip), vehicle: carboxymethylcellulose (CMC).
[4] abbreviates: dose: 100.0 mg/kg/injection, schedule: Q04DX003 (ip), vehicle: saline with Tween-80.
Setting [5] is: dose: 200.0 mg/kg/injection, schedule: Q04DX003 (ip), vehicle: saline with Tween-80.
The mark [6] stands for this setting: dose: 400.0 mg/kg/injection, schedule: Q04DX003 (ip), vehicle: saline with Tween-80.
Setting [7] is: dose: 200.0 mg/kg/injection, schedule: Q01DX001 (ip), vehicle: carboxymethylcellulose (CMC).
Setting [8] is: dose: 400.0 mg/kg/injection, schedule: Q01DX001 (ip), vehicle: carboxymethylcellulose (CMC).
Setting [9] is: dose: 100.0 mg/kg/injection, schedule: Q01DX009 (ip), vehicle: Klucel (hydroxypropylcellulose) (HPC).
Where [10] appears, read: dose: 100.0 mg/kg/injection, schedule: Q04DX003 (ip), vehicle: Klucel (hydroxypropylcellulose) (HPC).
Setting [11] is: dose: 200.0 mg/kg/injection, schedule: Q01DX009 (ip), vehicle: Klucel (hydroxypropylcellulose) (HPC).
The mark [12] stands for this setting: dose: 200.0 mg/kg/injection, schedule: Q04DX003 (ip), vehicle: Klucel (hydroxypropylcellulose) (HPC).
Where [13] appears, read: dose: 400.0 mg/kg/injection, schedule: Q01DX009 (ip), vehicle: Klucel (hydroxypropylcellulose) (HPC).
Where [14] appears, read: dose: 400.0 mg/kg/injection, schedule: Q04DX003 (ip), vehicle: Klucel (hydroxypropylcellulose) (HPC).

Values joined by “and” are separate entries in the source; they are usually repeats but may differ in a detail not shown here. Equal entries are not always repeated. Inconclusive results and toxic doses are left out.

In the case of `COc1ccc(C2ON2C2CCCCC2)cc1OC` (stereo not given), the T/C by setting is: under setting [1], 106 % of control; under setting [2], 100 % of control.

In the case of `CCN(CC)CCNC(Cc1ccccc1)c1cccc(OC)c1` (stereo not given), under setting [3], the T/C was 96 % of control.

In the case of `Cc1ccc(N=Nc2ccc(C)cc2NC(=O)Nc2cccc(F)c2)cc1`, the T/C was 90 % of control (dose: 100.0 mg/kg/injection, schedule: Q01DX009 (ip), vehicle: saline with Tween-80); 90 % of control (dose: 200.0 mg/kg/injection, schedule: Q01DX009 (ip), vehicle: saline with Tween-80); 98 % of control (dose: 400.0 mg/kg/injection, schedule: Q01DX009 (ip), vehicle: saline with Tween-80).

With `CC(C)OC(=O)Nc1cccc(Br)c1`, the T/C (dose: 100.0 mg/kg/injection, schedule: Q04DX002 (ip), vehicle: Klucel (hydroxypropylcellulose) (HPC)) is 92 % of control; the T/C (dose: 200.0 mg/kg/injection, schedule: Q04DX002 (ip), vehicle: Klucel (hydroxypropylcellulose) (HPC)) is 106 % of control; the T/C (dose: 400.0 mg/kg/injection, schedule: Q04DX002 (ip), vehicle: Klucel (hydroxypropylcellulose) (HPC)) is 95 % of control.

For `Cc1nc2c(=O)[nH]c(=O)[nH]c2[nH]c1=O`, the T/C runs as follows: (dose: 16.0 mg/kg/injection, schedule: Q01DX Z (ip), vehicle: methylcellulose (MC)) 89 % of control; (dose: 31.0 mg/kg/injection, schedule: Q01DX Z (ip), vehicle: methylcellulose (MC)) 95 % of control; (dose: 62.0 mg/kg/injection, schedule: Q01DX Z (ip), vehicle: methylcellulose (MC)) 93 % of control; (dose: 100.0 mg/kg/injection, schedule: Q01DX001 (ip), vehicle: other) 96 % of control; (dose: 100.0 mg/kg/injection, schedule: Q04DX003 (ip), vehicle: other) 100 % of control; (dose: 125.0 mg/kg/injection, schedule: Q01DX Z (ip), vehicle: methylcellulose (MC)) 101 % of control. For the same molecule, the T/C (dose: 200.0 mg/kg/injection, schedule: Q01DX001 (ip), vehicle: other) is 102 % of control; the T/C (dose: 200.0 mg/kg/injection, schedule: Q04DX003 (ip), vehicle: other) was 111 % of control; the T/C (dose: 400.0 mg/kg/injection, schedule: Q01DX001 (ip), vehicle: other) is 102 % of control; the T/C (dose: 400.0 mg/kg/injection, schedule: Q04DX003 (ip), vehicle: other) is 107 % of control.

Turning to `COc1ccc(OC(=O)Nc2ccccc2[N+](=O)[O-])cc1`, the T/C was 106 % of control under setting [4], 94 % of control under setting [5] and 95 % of control under setting [6].

Take `CCOc1ccc([N+](=O)[O-])cc1C1N(Cc2ccccc2OC)CCCN1Cc1ccccc1OC`: the T/C under setting [3] was 98 % of control, the T/C under setting [7] is 98 % of control and the T/C under setting [8] was 104 % of control.

On to `Cc1c(/C=N/N(CCO)CCO)[nH]c(=O)[nH]c1=O`, for which the T/C by setting is: (dose: 100.0 mg/kg/injection, schedule: Q01DX001 (ip), vehicle: saline with Tween-80) 103 % of control; (dose: 200.0 mg/kg/injection, schedule: Q01DX001 (ip), vehicle: saline with Tween-80) 103 % of control; (dose: 400.0 mg/kg/injection, schedule: Q01DX001 (ip), vehicle: saline with Tween-80) 98 % of control.

For the molecule `CCC(CC)(CC)OC(=O)NS(=O)(=O)c1ccc(Cl)cc1`, the T/C (dose: 100.0 mg/kg/injection, schedule: Q01DX009 (ip), vehicle: acetone) was 107 % of control; the T/C under setting [4] was 120 % of control; the T/C under setting [5] is 104 % of control; the T/C under setting [6] is 109 % of control.

As to `COc1ccc(Cl)cc1NC(=O)c1ccccc1C(=O)O`, the T/C was 98 % of control under setting [9]; 101 % of control under setting [10]; 102 % of control under setting [11]; 96 % of control under setting [12]; 94 % of control under setting [13]; 103 % of control under setting [14].

For the molecule `Brc1sccc1-c1cccc2ccccc12`, the T/C by setting is: under setting [4], 94 % of control; under setting [6], 91 % of control.

Regarding `O=C(Nc1cccc(C(F)(F)F)c1)Nc1cccc2ccc(O)cc12`, the T/C under setting [9] is 107 % of control, the T/C under setting [11] is 106 % of control and the T/C under setting [13] is 98 % of control.

Consider `CCCCn1cnc2c(=S)nc[nH]c21`, for which the T/C reads like this: (dose: 5.0 mg/kg/injection, schedule: Q01DX Z (ip), vehicle: carboxymethylcellulose (CMC)) 98 % of control; (dose: 8.0 mg/kg/injection, schedule: Q01DX Z (ip), vehicle: carboxymethylcellulose (CMC)) 103 % of control; (dose: 10.0 mg/kg/injection, schedule: Q01DX Z (ip), vehicle: carboxymethylcellulose (CMC)) 102 % of control; (dose: 16.0 mg/kg/injection, schedule: Q01DX Z (ip), vehicle: carboxymethylcellulose (CMC)) 103 % of control; (dose: 16.0 mg/kg/injection, schedule: Q01DX Z (ip), vehicle: saline) 94 % of control; (dose: 16.0 mg/kg/injection, schedule: Q01DX Z (oral), vehicle: carboxymethylcellulose (CMC)) 109 % of control. Moreover, the T/C (dose: 20.0 mg/kg/injection, schedule: Q01DX Z (ip), vehicle: carboxymethylcellulose (CMC)) was 104 % of control; the T/C (dose: 32.0 mg/kg/injection, schedule: Q01DX009 (ip), vehicle: saline) is 101 % of control; the T/C (dose: 32.0 mg/kg/injection, schedule: Q01DX Z (ip), vehicle: carboxymethylcellulose (CMC)) is 120 % of control; the T/C (dose: 32.0 mg/kg/injection, schedule: Q01DX Z (ip), vehicle: saline) is 97 % of control; the T/C (dose: 32.0 mg/kg/injection, schedule: Q01DX Z (oral), vehicle: carboxymethylcellulose (CMC)) is 112 % of control; the T/C (dose: 40.0 mg/kg/injection, schedule: Q01DX Z (ip), vehicle: carboxymethylcellulose (CMC)) is 112 % of control. For the same molecule, the T/C runs as follows: (dose: 64.0 mg/kg/injection, schedule: Q01DX009 (ip), vehicle: saline) 115 % of control and 121 % of control; (dose: 64.0 mg/kg/injection, schedule: Q01DX Z (ip), vehicle: saline) 123 % of control; (dose: 64.0 mg/kg/injection, schedule: Q01DX Z (oral), vehicle: carboxymethylcellulose (CMC)) 117 % of control; (dose: 86.0 mg/kg/injection, schedule: Q02DX010 (ip), vehicle: carboxymethylcellulose (CMC)) 117 % of control; (dose: 88.0 mg/kg/injection, schedule: Q02DX010 (ip), vehicle: carboxymethylcellulose (CMC)) 116 % of control; (dose: 100.0 mg/kg/injection, schedule: Q01DX015 (ip), vehicle: carboxymethylcellulose (CMC)) 178 % of control. The T/C was 152 % of control (dose: 160.0 mg/kg/injection, schedule: Q01DX015 (ip), vehicle: carboxymethylcellulose (CMC)); 124 % of control (dose: 225.0 mg/kg/injection, schedule: Q01DX015 (ip), vehicle: carboxymethylcellulose (CMC)); 116 % of control (dose: 240.0 mg/kg/injection, schedule: Q01DX015 (ip), vehicle: carboxymethylcellulose (CMC)); 121 % of control (dose: 256.0 mg/kg/injection, schedule: Q01DX009 (ip), vehicle: saline); 100 % of control (dose: 256.0 mg/kg/injection, schedule: Q01DX Z (ip), vehicle: saline); 92 % of control (dose: 320.0 mg/kg/injection, schedule: Q01DX015 (ip), vehicle: carboxymethylcellulose (CMC)). Further, under “dose: 335.0 mg/kg/injection, schedule: Q01DX015 (ip), vehicle: carboxymethylcellulose (CMC)”, the T/C was 98 % of control.

Regarding `CCOC(=O)c1c(C)c2c(n1C)CCC(CCC(C)=O)C2=O` (stereo not given), the T/C by setting is: under setting [3], 104 % of control; under setting [7], 97 % of control; under setting [8], 93 % of control.

With `O=C1c2cccc3cccc(c23)C(=O)N1CCc1ccccn1`, the T/C under setting [9] is 91 % of control and the T/C under setting [11] is 92 % of control.

In the case of `O=P1(Nc2ccccc2)OCCCN1Cc1ccc(Cl)c(Cl)c1` (stereo not given), the T/C was 96 % of control (dose: 50.0 mg/kg/injection, schedule: Q01DX001 (ip), vehicle: saline); 102 % of control (dose: 100.0 mg/kg/injection, schedule: Q01DX001 (ip), vehicle: saline); 90 % of control under setting [1]; 102 % of control under setting [2].

Turning to `O=C(O)CCC(=O)Nc1ccccc1`, the T/C reads like this: under setting [10], 95 % of control; under setting [12], 97 % of control; under setting [14], 101 % of control.

These data come from PubChem BioAssay AID248 (DTP/NCI, 2004).
